ChEMBL document CHEMBL1147307, “Cytotoxic macrolides from a cultured marine dinoflagellate of the genus Amphidinium” (J Nat Prod, 1989)
Converted amounts (≈) assume the structure as drawn.

Test system: L1210
Assay: Cytotoxicity against mouse L1210 cells
Format: functional, cell-based

SMILES: C=C1/C=C(\C)C(C)(O)CC(O)CC(=O)C(O)C(O)C(C)CC(C)OC(=O)/C(C)=C/CC/C=C/C(OC)C(O)CC(C)C1 (stereo unspecified)
- IC50: 0.081 µg/mL (≈ 0.136 µM)
